Experimental data reported in patent US5654399A, “Tetrapeptide derivative having antitumor activity” (Teikoku Hormone Mfg. Co., Ltd., priority 1991, dated 1997).
Converted amounts (≈) assume the structure as drawn.

Tested on: lymphocytic leukemia P388 cells
Test: screening of cytostatic activity using lymphocytic leukemia P388 cells
Format: cell-based
From the text: The screening of cytostatic activity was made using lymphocytic leukemia P388 cells.

**Q.** How did the ED50 turn out when `CC[C@H](C)[C@@H]([C@@H](CC(=O)N1CCC[C@H]1[C@H](OC)[C@@H](C)C(=O)N[C@@H](Cc1ccccc1)c1nccs1)OC)N(C)C(=O)[C@@H](NC(=O)[C@H](C(C)C)N(C)C)C(C)C` [Dolastatin 10] was run?
**A.** 0.7 ng/mL (≈ 0.892 nM)
